Legend:
Experiment in all cases: radiometric filter-binding kinase assay
STK33 (human) = STK33 (human) (UniProt Q9BYT3)
IRAK1 (human) = IRAK1 (human) (UniProt P51617)
TLK1 (human) = TLK1 (human) (UniProt Q9UKI8)
CSNK1G2 (human) = CSNK1G2 (human) (UniProt P78368)
GSK3B (human) = GSK3B (human) (UniProt P49841)
SIK2 (human) = SIK2 (human) (UniProt Q9H0K1)
ZAP70 (human) = ZAP70 (human) (UniProt P43403)
TESK1 (human) = TESK1 (human) (UniProt Q15569)
CDK9 CCNT1 (human) = CDK9 CCNT1 (human) (UniProt P50750+O60563)
DDR2 (human) = DDR2 (human) (UniProt Q16832)
Chain of DDR2 (human) (Q16832 whole entry, looked up): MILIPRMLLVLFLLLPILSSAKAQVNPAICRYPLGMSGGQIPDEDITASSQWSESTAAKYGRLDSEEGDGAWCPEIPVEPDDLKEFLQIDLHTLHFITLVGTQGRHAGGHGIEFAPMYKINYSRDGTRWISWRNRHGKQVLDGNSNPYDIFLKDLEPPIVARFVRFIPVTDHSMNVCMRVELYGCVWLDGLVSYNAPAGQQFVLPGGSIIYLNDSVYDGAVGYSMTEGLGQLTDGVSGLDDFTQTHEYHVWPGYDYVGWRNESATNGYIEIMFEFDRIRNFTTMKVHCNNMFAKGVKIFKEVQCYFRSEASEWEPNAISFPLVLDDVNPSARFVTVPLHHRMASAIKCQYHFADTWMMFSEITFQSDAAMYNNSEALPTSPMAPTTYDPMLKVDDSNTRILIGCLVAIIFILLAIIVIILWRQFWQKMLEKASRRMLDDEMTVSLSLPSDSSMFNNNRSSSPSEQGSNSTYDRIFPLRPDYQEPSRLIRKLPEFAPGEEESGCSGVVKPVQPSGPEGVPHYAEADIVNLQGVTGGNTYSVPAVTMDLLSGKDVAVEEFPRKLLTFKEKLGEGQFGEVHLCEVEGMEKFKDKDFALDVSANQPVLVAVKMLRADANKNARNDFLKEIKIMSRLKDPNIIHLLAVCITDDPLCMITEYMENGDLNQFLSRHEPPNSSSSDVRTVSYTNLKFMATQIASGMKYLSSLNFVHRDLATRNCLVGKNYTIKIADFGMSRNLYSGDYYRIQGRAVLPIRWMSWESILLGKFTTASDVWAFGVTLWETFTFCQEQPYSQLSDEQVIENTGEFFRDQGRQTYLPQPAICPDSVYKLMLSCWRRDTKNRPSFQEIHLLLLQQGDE

[1] = test system: OXSR1 (human), O95747 [T185E]
SIK3 (human) = SIK3 (human) (UniProt Q9Y2K2)
PRKCG (human) = PRKCG (human) (UniProt P05129)
TTBK1 (human) = TTBK1 (human) (UniProt Q5TCY1)
STK24 (human) = STK24 (human) (UniProt Q9Y6E0)
TEK (human) = TEK (human) (UniProt Q02763)
ABL1 (human) = ABL1 (human) (UniProt P00519)
WNK1 (human) = WNK1 (human) (UniProt Q9H4A3)
ULK1 (human) = ULK1 (human) (UniProt O75385)
PTK6 (human) = PTK6 (human) (UniProt Q13882)
SRPK1 (human) = SRPK1 (human) (UniProt Q96SB4)
STK16 (human) = STK16 (human) (UniProt O75716)
EIF2AK3 (human) = EIF2AK3 (human) (UniProt Q9NZJ5)
Chain of EIF2AK3 (human) (Q9NZJ5 whole entry, looked up): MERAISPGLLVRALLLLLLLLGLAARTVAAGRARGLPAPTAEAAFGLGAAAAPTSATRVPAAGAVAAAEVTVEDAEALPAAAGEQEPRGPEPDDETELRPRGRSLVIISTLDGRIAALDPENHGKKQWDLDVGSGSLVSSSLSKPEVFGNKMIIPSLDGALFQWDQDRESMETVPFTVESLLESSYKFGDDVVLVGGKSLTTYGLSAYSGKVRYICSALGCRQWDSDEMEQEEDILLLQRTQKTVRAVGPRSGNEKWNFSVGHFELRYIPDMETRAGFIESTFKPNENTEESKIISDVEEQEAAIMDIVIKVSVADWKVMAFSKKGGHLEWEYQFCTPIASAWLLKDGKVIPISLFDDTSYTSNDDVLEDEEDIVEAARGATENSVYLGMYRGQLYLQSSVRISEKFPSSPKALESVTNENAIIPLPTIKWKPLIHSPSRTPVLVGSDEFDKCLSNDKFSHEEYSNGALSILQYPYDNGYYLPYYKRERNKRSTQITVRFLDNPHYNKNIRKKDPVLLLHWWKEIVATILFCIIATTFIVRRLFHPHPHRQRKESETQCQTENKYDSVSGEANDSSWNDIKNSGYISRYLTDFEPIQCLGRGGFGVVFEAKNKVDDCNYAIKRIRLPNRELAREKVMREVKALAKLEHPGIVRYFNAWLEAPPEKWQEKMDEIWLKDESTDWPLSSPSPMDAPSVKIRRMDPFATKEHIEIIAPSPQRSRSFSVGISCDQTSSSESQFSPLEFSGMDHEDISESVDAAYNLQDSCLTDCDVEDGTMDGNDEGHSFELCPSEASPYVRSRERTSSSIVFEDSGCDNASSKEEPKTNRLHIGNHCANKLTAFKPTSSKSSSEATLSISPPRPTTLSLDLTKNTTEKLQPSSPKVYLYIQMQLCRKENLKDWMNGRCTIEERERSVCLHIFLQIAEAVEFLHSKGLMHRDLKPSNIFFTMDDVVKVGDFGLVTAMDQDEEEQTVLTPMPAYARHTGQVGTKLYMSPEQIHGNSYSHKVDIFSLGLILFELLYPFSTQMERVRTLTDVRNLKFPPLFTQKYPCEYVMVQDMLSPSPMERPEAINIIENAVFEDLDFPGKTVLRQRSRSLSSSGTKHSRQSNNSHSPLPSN

TSSK1B (human) = TSSK1B (human) (UniProt Q9BXA7)
ULK2 (human) = ULK2 (human) (UniProt Q8IYT8)

Chain of STK33 (human) (Q9BYT3 whole entry, looked up): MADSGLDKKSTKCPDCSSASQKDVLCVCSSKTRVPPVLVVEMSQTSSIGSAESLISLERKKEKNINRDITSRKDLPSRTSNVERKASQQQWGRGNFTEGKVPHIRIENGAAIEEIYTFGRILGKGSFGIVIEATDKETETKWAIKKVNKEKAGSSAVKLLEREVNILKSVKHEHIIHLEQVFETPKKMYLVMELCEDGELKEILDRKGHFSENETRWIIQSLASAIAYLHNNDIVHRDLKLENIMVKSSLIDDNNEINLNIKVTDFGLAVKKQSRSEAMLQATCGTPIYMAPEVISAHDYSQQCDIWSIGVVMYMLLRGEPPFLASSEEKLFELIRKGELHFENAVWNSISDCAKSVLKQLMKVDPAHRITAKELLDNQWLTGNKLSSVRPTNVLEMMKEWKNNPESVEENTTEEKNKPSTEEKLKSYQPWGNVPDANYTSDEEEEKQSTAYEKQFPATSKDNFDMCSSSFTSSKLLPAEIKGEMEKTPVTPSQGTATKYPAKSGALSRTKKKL
Chain of TESK1 (human) (Q15569 whole entry, looked up): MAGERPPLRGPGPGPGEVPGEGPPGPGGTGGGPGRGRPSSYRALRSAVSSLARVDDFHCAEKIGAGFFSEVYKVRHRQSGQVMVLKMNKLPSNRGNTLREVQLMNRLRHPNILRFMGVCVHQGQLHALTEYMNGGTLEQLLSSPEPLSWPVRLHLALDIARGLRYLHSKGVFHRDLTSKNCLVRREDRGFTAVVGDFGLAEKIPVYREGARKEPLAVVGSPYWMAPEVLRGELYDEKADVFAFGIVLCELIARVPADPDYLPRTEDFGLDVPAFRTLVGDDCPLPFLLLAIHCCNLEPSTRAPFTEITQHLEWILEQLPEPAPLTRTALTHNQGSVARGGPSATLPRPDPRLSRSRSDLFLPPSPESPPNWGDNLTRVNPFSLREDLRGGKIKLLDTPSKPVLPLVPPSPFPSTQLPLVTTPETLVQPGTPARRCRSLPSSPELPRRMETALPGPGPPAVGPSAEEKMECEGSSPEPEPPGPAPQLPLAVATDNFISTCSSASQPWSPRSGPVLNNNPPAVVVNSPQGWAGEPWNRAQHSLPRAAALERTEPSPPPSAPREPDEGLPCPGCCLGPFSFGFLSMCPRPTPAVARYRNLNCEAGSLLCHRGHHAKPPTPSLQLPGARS
Chain of CSNK1G2 (human) (P78368 whole entry, looked up): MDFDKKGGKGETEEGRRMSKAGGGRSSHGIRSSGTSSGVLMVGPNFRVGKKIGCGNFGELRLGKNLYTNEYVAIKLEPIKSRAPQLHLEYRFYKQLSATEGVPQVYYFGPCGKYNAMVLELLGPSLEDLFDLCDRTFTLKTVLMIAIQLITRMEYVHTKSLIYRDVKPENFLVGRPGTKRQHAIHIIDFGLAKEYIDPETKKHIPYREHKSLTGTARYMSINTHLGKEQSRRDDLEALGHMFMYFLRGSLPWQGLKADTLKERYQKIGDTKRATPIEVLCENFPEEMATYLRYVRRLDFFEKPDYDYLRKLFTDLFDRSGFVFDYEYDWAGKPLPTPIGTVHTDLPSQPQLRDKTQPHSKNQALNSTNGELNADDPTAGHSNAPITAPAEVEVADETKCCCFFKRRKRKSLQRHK
Chain of ZAP70 (human) (P43403 whole entry, looked up): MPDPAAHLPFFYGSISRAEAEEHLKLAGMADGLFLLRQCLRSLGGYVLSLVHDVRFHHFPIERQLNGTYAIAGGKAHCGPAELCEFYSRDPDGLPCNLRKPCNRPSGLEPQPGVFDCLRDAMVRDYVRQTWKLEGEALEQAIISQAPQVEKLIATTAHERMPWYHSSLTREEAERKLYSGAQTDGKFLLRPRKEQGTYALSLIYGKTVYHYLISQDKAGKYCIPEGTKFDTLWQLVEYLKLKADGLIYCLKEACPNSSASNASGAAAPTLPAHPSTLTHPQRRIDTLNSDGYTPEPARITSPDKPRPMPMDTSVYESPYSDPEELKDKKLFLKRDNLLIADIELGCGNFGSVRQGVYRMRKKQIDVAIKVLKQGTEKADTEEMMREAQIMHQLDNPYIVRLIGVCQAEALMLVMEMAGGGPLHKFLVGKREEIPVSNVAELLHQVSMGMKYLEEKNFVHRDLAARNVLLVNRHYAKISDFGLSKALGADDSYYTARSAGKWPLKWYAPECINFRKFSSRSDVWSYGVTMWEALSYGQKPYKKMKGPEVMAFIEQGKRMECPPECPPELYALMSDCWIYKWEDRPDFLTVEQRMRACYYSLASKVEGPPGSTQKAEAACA

With `CN(C)C/C=C/C(=O)Nc1cccc(C(=O)Nc2ccc(Nc3nccc(-c4cccnc4)n3)cc2)c1` as the compound, how does the residual activity (STK33 (human); compound 0.1 µM) read?
Its residual activity is 92%.

What about the residual activity (STK33 (human); compound 1.0 µM) of the same compound?
The residual activity was 91%.

And the residual activity (IRAK1 (human); compound 0.1 µM)?
Its residual activity is 26%.

And the residual activity (IRAK1 (human); compound 1.0 µM)?
Its residual activity is 5%.

And the residual activity (TLK1 (human); compound 0.1 µM)?
Its residual activity is 99%.

What about the residual activity (TLK1 (human); compound 1.0 µM) of the same compound?
The residual activity was 98%.

What about the residual activity (CSNK1G2 (human); compound 0.1 µM) of the same compound?
Its residual activity is 88%.

And the residual activity (CSNK1G2 (human); compound 1.0 µM)?
Its residual activity is 88%.

And the residual activity (GSK3B (human); compound 0.1 µM)?
The residual activity was 88%.

And the residual activity (GSK3B (human); compound 1.0 µM)?
Its residual activity is 56%.

What about the residual activity (SIK2 (human); compound 0.1 µM) of the same compound?
Its residual activity is 78%.

What about the residual activity (SIK2 (human); compound 1.0 µM) of the same compound?
The residual activity was 67%.

What about the residual activity (ZAP70 (human); compound 0.1 µM) of the same compound?
The residual activity was 82%.

And the residual activity (ZAP70 (human); compound 1.0 µM)?
Its residual activity is 123%.

And the residual activity (TESK1 (human); compound 0.1 µM)?
The residual activity was 90%.

And the residual activity (TESK1 (human); compound 1.0 µM)?
The residual activity was 98%.

And the residual activity (CDK9 CCNT1 (human); compound 0.1 µM)?
The residual activity was 22%.

What about the residual activity (CDK9 CCNT1 (human); compound 1.0 µM) of the same compound?
The residual activity was 42%.

And the residual activity (DDR2 (human); compound 0.1 µM)?
The residual activity was 89%.

And the residual activity (DDR2 (human); compound 1.0 µM)?
Its residual activity is 108%.

What about the residual activity ([1]; compound 0.1 µM) of the same compound?
The residual activity was 99%.

What about the residual activity ([1]; compound 1.0 µM) of the same compound?
Its residual activity is 105%.

And the residual activity (SIK3 (human); compound 0.1 µM)?
The residual activity was 81%.

And the residual activity (SIK3 (human); compound 1.0 µM)?
The residual activity was 64%.

What about the residual activity (PRKCG (human); compound 0.1 µM) of the same compound?
The residual activity was 96%.

And the residual activity (PRKCG (human); compound 1.0 µM)?
The residual activity was 101%.

And the residual activity (TTBK1 (human); compound 0.1 µM)?
The residual activity was 88%.

What about the residual activity (TTBK1 (human); compound 1.0 µM) of the same compound?
The residual activity was 79%.

What about the residual activity (STK24 (human); compound 0.1 µM) of the same compound?
Its residual activity is 94%.

What about the residual activity (STK24 (human); compound 1.0 µM) of the same compound?
The residual activity was 93%.

And the residual activity (TEK (human); compound 0.1 µM)?
Its residual activity is 94%.

What about the residual activity (TEK (human); compound 1.0 µM) of the same compound?
The residual activity was 84%.

What about the residual activity (ABL1 (human); compound 0.1 µM) of the same compound?
The residual activity was 77%.

And the residual activity (ABL1 (human); compound 1.0 µM)?
The residual activity was 85%.

What about the residual activity (WNK1 (human); compound 0.1 µM) of the same compound?
Its residual activity is 103%.

What about the residual activity (WNK1 (human); compound 1.0 µM) of the same compound?
Its residual activity is 117%.

What about the residual activity (ULK1 (human); compound 0.1 µM) of the same compound?
The residual activity was 37%.

And the residual activity (ULK1 (human); compound 1.0 µM)?
The residual activity was 63%.

What about the residual activity (PTK6 (human); compound 0.1 µM) of the same compound?
The residual activity was 81%.

And the residual activity (PTK6 (human); compound 1.0 µM)?
Its residual activity is 81%.

And the residual activity (SRPK1 (human); compound 0.1 µM)?
The residual activity was 105%.

What about the residual activity (SRPK1 (human); compound 1.0 µM) of the same compound?
Its residual activity is 104%.

What about the residual activity (STK16 (human); compound 0.1 µM) of the same compound?
Its residual activity is 108%.

What about the residual activity (STK16 (human); compound 1.0 µM) of the same compound?
The residual activity was 103%.

What about the residual activity (EIF2AK3 (human); compound 0.1 µM) of the same compound?
Its residual activity is 90%.

And the residual activity (EIF2AK3 (human); compound 1.0 µM)?
Its residual activity is 99%.

And the residual activity (TSSK1B (human); compound 0.1 µM)?
The residual activity was 88%.

And the residual activity (TSSK1B (human); compound 1.0 µM)?
The residual activity was 101%.

And the residual activity (ULK2 (human); compound 0.1 µM)?
The residual activity was 50%.

And the residual activity (ULK2 (human); compound 1.0 µM)?
The residual activity was 69%.

How did the residual activity (STK33 (human); compound 0.01 µM) turn out when `COc1cc(O)c2c(c1)[C@H]1OC1C[C@H](O)[C@H](O)C(=O)/C=C\C[C@H](C)OC2=O` (stereo partly drawn) was run?
The residual activity was 113%.

And the residual activity (STK33 (human); compound 0.1 µM)?
The residual activity was 105%.

And the residual activity (STK33 (human); compound 1.0 µM)?
Its residual activity is 113%.

And the residual activity (IRAK1 (human); compound 0.01 µM)?
The residual activity was 97%.

What about the residual activity (IRAK1 (human); compound 0.1 µM) of the same compound?
The residual activity was 97%.

What about the residual activity (TLK1 (human); compound 0.01 µM) of the same compound?
The residual activity was 95%.

And the residual activity (TLK1 (human); compound 0.1 µM)?
The residual activity was 101%.

And the residual activity (CSNK1G2 (human); compound 0.01 µM)?
The residual activity was 100%.

What about the residual activity (CSNK1G2 (human); compound 0.1 µM) of the same compound?
Its residual activity is 100%.

And the residual activity (CSNK1G2 (human); compound 1.0 µM)?
Its residual activity is 109%.

What about the residual activity (GSK3B (human); compound 0.01 µM) of the same compound?
The residual activity was 91%.

What about the residual activity (GSK3B (human); compound 0.1 µM) of the same compound?
Its residual activity is 106%.

And the residual activity (SIK2 (human); compound 0.01 µM)?
The residual activity was 106%.

What about the residual activity (SIK2 (human); compound 0.1 µM) of the same compound?
Its residual activity is 107%.

What about the residual activity (SIK2 (human); compound 1.0 µM) of the same compound?
The residual activity was 88%.

And the residual activity (ZAP70 (human); compound 0.1 µM)?
Its residual activity is 101%.

And the residual activity (ZAP70 (human); compound 1.0 µM)?
The residual activity was 103%.

What about the residual activity (TESK1 (human); compound 0.1 µM) of the same compound?
Its residual activity is 107%.

What about the residual activity (TESK1 (human); compound 1.0 µM) of the same compound?
The residual activity was 92%.

And the residual activity (CDK9 CCNT1 (human); compound 0.01 µM)?
Its residual activity is 97%.

And the residual activity (CDK9 CCNT1 (human); compound 0.1 µM)?
The residual activity was 117%.

And the residual activity (CDK9 CCNT1 (human); compound 1.0 µM)?
The residual activity was 111%.

What about the residual activity (DDR2 (human); compound 0.01 µM) of the same compound?
The residual activity was 91%.

What about the residual activity (DDR2 (human); compound 0.1 µM) of the same compound?
The residual activity was 113%.

What about the residual activity ([1]; compound 0.01 µM) of the same compound?
The residual activity was 104%.

And the residual activity ([1]; compound 0.1 µM)?
Its residual activity is 99%.

And the residual activity (SIK3 (human); compound 0.01 µM)?
The residual activity was 102%.

And the residual activity (SIK3 (human); compound 0.1 µM)?
Its residual activity is 93%.

And the residual activity (SIK3 (human); compound 1.0 µM)?
Its residual activity is 94%.

And the residual activity (PRKCG (human); compound 0.01 µM)?
The residual activity was 103%.

And the residual activity (PRKCG (human); compound 0.1 µM)?
The residual activity was 109%.

And the residual activity (PRKCG (human); compound 1.0 µM)?
The residual activity was 89%.

What about the residual activity (TTBK1 (human); compound 0.01 µM) of the same compound?
The residual activity was 89%.

What about the residual activity (TTBK1 (human); compound 0.1 µM) of the same compound?
Its residual activity is 82%.

And the residual activity (STK24 (human); compound 0.01 µM)?
The residual activity was 106%.

What about the residual activity (STK24 (human); compound 0.1 µM) of the same compound?
The residual activity was 104%.

What about the residual activity (STK24 (human); compound 1.0 µM) of the same compound?
Its residual activity is 114%.

And the residual activity (TEK (human); compound 0.01 µM)?
The residual activity was 122%.

What about the residual activity (TEK (human); compound 0.1 µM) of the same compound?
The residual activity was 101%.

What about the residual activity (TEK (human); compound 1.0 µM) of the same compound?
Its residual activity is 122%.

And the residual activity (ABL1 (human); compound 0.01 µM)?
The residual activity was 96%.

And the residual activity (ABL1 (human); compound 0.1 µM)?
Its residual activity is 97%.

What about the residual activity (ABL1 (human); compound 1.0 µM) of the same compound?
Its residual activity is 105%.

And the residual activity (WNK1 (human); compound 0.01 µM)?
The residual activity was 94%.

What about the residual activity (WNK1 (human); compound 0.1 µM) of the same compound?
Its residual activity is 107%.

And the residual activity (WNK1 (human); compound 1.0 µM)?
The residual activity was 106%.

And the residual activity (ULK1 (human); compound 0.01 µM)?
Its residual activity is 91%.

And the residual activity (ULK1 (human); compound 0.1 µM)?
Its residual activity is 88%.

What about the residual activity (ULK1 (human); compound 1.0 µM) of the same compound?
Its residual activity is 92%.

And the residual activity (PTK6 (human); compound 0.01 µM)?
The residual activity was 101%.

What about the residual activity (PTK6 (human); compound 1.0 µM) of the same compound?
Its residual activity is 48%.

What about the residual activity (SRPK1 (human); compound 0.01 µM) of the same compound?
The residual activity was 111%.

What about the residual activity (SRPK1 (human); compound 0.1 µM) of the same compound?
The residual activity was 95%.

And the residual activity (SRPK1 (human); compound 1.0 µM)?
Its residual activity is 100%.

And the residual activity (STK16 (human); compound 0.01 µM)?
Its residual activity is 94%.

And the residual activity (STK16 (human); compound 1.0 µM)?
Its residual activity is 102%.

What about the residual activity (EIF2AK3 (human); compound 0.01 µM) of the same compound?
Its residual activity is 105%.

And the residual activity (EIF2AK3 (human); compound 0.1 µM)?
The residual activity was 92%.

What about the residual activity (TSSK1B (human); compound 0.01 µM) of the same compound?
Its residual activity is 112%.

And the residual activity (TSSK1B (human); compound 0.1 µM)?
The residual activity was 110%.

And the residual activity (TSSK1B (human); compound 1.0 µM)?
Its residual activity is 99%.

And the residual activity (ULK2 (human); compound 0.01 µM)?
Its residual activity is 94%.

What about the residual activity (ULK2 (human); compound 0.1 µM) of the same compound?
The residual activity was 96%.

From the kinase profiling compilation of Christmann-Franck et al. (2016)
